Test results: publication PMC12198282, “Application of a high-density microelectrode array assay using a 3D human iPSC-derived brain microphysiological system model for in vitro neurotoxicity screening of environmental compounds” (Archives of Toxicology, 2025)
Entries after “also recorded” stand apart in the source; their conditions may differ. Where two headings read alike, the source gives them in different places.

Key:
[1] = system: human iPSC-derived 3D BrainSpheres; test: BrainSphere MEA assay (HD-MEA, 13-day exposure, concentration-response); format: cell-based; conditions: for EC (benchmark response 1.349 SD): 312 h
Procedure, shortened: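 Recordings used a 5× RMS spike threshold and 600 s network scans of fixed electrode regions, each region clustered as one BrainSphere. Spheres had 7 weeks of differentiation and 48 h attachment on coated HD-MEA chips before day 0 of the 13-day concentration-response exposure. At least three independent plates were run.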

2D rat cortical cultures [2] = conditions: cytotoxicity AlamarBlue, cited from earlier work
2D rat cortical cultures [3] = conditions: cited from earlier work
2D rat cortical cultures [4] = conditions: cytotoxicity LDH, cited from earlier work

SMILES: CN(C)C(=O)C(CCN1CCC(O)(c2ccc(Cl)cc2)CC1)(c1ccccc1)c1ccccc1 [Loperamide]
- ACC Mean.Spheroid.Burst.Duration [1]: 0.076 µM
- ACC Mean.Spheroid.Burst.ISI [1]: 0.019 µM
- ACC Mean.Spheroid.Burst.Peak.Firing.Rate [1]: 0.065 µM
- ACC Mean.Spheroid.Firing.Rate [1]: 0.036 µM
- ACC Mean.Spheroid.IBI [1]: 0.9 µM
- ACC Mean.Spheroid.Nonburst.ISI [1]: 0.97 µM
- ACC Mean.Spheroid.Spikes.per.Burst [1]: 0.08 µM
- ACC Mean.Spheroid.Spikes.per.Burst.per.Electrode [1]: 0.082 µM
- ACC Spheroid.Burst.Frequency [1]: 0.026 µM
- ACC Spheroid.Spike.Amplitude.90th.Percentile [1]: 6.6 µM
- BMD Mean.Spheroid.Burst.Duration [1]: 0.087 µM
- BMD Mean.Spheroid.Burst.Peak.Firing.Rate [1]: 0.071 µM
- BMD Mean.Spheroid.Firing.Rate [1]: 0.025 µM
- BMD Mean.Spheroid.IBI [1]: 0.83 µM
- BMD Mean.Spheroid.Spikes.per.Burst [1]: 0.054 µM
- BMD Mean.Spheroid.Spikes.per.Burst.per.Electrode [1]: 0.07 µM
- BMD Spheroid.Burst.Frequency [1]: 0.031 µM
- BMD Spheroid.Spike.Amplitude.90th.Percentile [1]: 2.6 µM
- Bioactivity trend over time for MFR, mean spike amplitude and burst frequency (qualitative) [1]: appeared to decrease activity
- Difference of minimum potency between BrainSphere MEA assay and rNFA [1]: ≤ 0.5 log10 µM
- Percent active [1]: 100%
- hitc Mean.Spheroid.Burst.Duration [1]: 1
- hitc Mean.Spheroid.Burst.ISI [1]: 1
- hitc Mean.Spheroid.Burst.Peak.Firing.Rate [1]: 1
- hitc Mean.Spheroid.Firing.Rate [1]: 1
- hitc Mean.Spheroid.IBI [1]: 1
- hitc Mean.Spheroid.Nonburst.ISI [1]: 1
- hitc Mean.Spheroid.Spikes.per.Burst [1]: 1
- hitc Mean.Spheroid.Spikes.per.Burst.per.Electrode [1]: 1
- hitc Spheroid.Burst.Frequency [1]: 1
- hitc Spheroid.Spike.Amplitude.90th.Percentile [1]: 1
- EC (benchmark response 1.349 SD) ([1]; Homo sapiens, read-out: BMD Mean.Spheroid.Burst.ISI): 0.04 µM
- EC (benchmark response 1.349 SD) ([1]; Homo sapiens, read-out: BMD Mean.Spheroid.Nonburst.ISI): 0.95 µM
- AC50 ([1]; Homo sapiens, read-out: ac50 Mean.Spheroid.Burst.Duration): 140 nM
- AC50 ([1]; Homo sapiens, read-out: ac50 Mean.Spheroid.Burst.ISI): 100 nM
- AC50 ([1]; Homo sapiens, read-out: ac50 Mean.Spheroid.Burst.Peak.Firing.Rate): 120 nM
- AC50 ([1]; Homo sapiens, read-out: ac50 Mean.Spheroid.Firing.Rate): 23 nM
- AC50 ([1]; Homo sapiens, read-out: ac50 Mean.Spheroid.IBI): 910 nM
- AC50 ([1]; Homo sapiens, read-out: ac50 Mean.Spheroid.Nonburst.ISI): 990 nM
- AC50 ([1]; Homo sapiens, read-out: ac50 Mean.Spheroid.Spikes.per.Burst): 73 nM
- AC50 ([1]; Homo sapiens, read-out: ac50 Mean.Spheroid.Spikes.per.Burst.per.Electrode): 94 nM
- AC50 ([1]; Homo sapiens, read-out: ac50 Spheroid.Spike.Amplitude.90th.Percentile): 8900 nM
- AC50 ([1]; read-out: ac50 Mean.Spheroid.Burst.Duration): 145 nM
- AC50 ([1]; read-out: ac50 Mean.Spheroid.Burst.ISI): 103 nM
- AC50 ([1]; read-out: ac50 Mean.Spheroid.Burst.Peak.Firing.Rate): 115 nM
- AC50 ([1]; read-out: ac50 Mean.Spheroid.Nonburst.ISI): 989 nM
- AC50 ([1]; read-out: ac50 Spheroid.Spike.Amplitude.90th.Percentile): 8930 nM
- AC50 (2D rat cortical cultures [2]; read-out: ac50 CCTE_Shafer_MEA_dev_AB, rNFA mc5): 5020 nM
- Bioactivity in the rNFA (in words) (2D rat cortical cultures [3]): alter multiple parameters of network formation
- hitc CCTE_Shafer_MEA_dev_active_electrodes_number (2D rat cortical cultures [3]): 1
- hitc CCTE_Shafer_MEA_dev_burst_duration_mean (2D rat cortical cultures [3]): 1
- hitc CCTE_Shafer_MEA_dev_burst_rate (2D rat cortical cultures [3]): 1
- hitc CCTE_Shafer_MEA_dev_bursting_electrodes_number (2D rat cortical cultures [3]): 1
- hitc CCTE_Shafer_MEA_dev_correlation_coefficient_mean (2D rat cortical cultures [3]): 1
- hitc CCTE_Shafer_MEA_dev_firing_rate_mean (2D rat cortical cultures [3]): 1
- hitc CCTE_Shafer_MEA_dev_inter_network_spike_interval_mean (2D rat cortical cultures [3]): 0
- hitc CCTE_Shafer_MEA_dev_interburst_interval_mean (2D rat cortical cultures [3]): 1
- hitc CCTE_Shafer_MEA_dev_mutual_information_norm (2D rat cortical cultures [3]): 1
- hitc CCTE_Shafer_MEA_dev_network_spike_duration_std (2D rat cortical cultures [3]): 1
- hitc CCTE_Shafer_MEA_dev_network_spike_number (2D rat cortical cultures [3]): 1
- hitc CCTE_Shafer_MEA_dev_network_spike_peak (2D rat cortical cultures [3]): 1
- hitc CCTE_Shafer_MEA_dev_per_burst_interspike_interval (2D rat cortical cultures [3]): 1
- hitc CCTE_Shafer_MEA_dev_per_burst_spike_percent (2D rat cortical cultures [3]): 1
- hitc CCTE_Shafer_MEA_dev_per_network_spike_spike_number_mean (2D rat cortical cultures [3]): 1
- hitc CCTE_Shafer_MEA_dev_per_network_spike_spike_percent (2D rat cortical cultures [3]): 1
- hitc CCTE_Shafer_MEA_dev_spike_duration_mean (2D rat cortical cultures [3]): 1
- AC50 (2D rat cortical cultures [3]; read-out: ac50 CCTE_Shafer_MEA_dev_active_electrodes_number): 196 nM
- AC50 (2D rat cortical cultures [3]; read-out: ac50 CCTE_Shafer_MEA_dev_burst_duration_mean): 33 nM
- AC50 (2D rat cortical cultures [3]; read-out: ac50 CCTE_Shafer_MEA_dev_burst_rate): 42 nM
- AC50 (2D rat cortical cultures [3]; read-out: ac50 CCTE_Shafer_MEA_dev_bursting_electrodes_number): 117 nM
- AC50 (2D rat cortical cultures [3]; read-out: ac50 CCTE_Shafer_MEA_dev_correlation_coefficient_mean): 766 nM
- AC50 (2D rat cortical cultures [3]; read-out: ac50 CCTE_Shafer_MEA_dev_firing_rate_mean): 63 nM
- AC50 (2D rat cortical cultures [3]; read-out: ac50 CCTE_Shafer_MEA_dev_interburst_interval_mean): 249 nM
- AC50 (2D rat cortical cultures [3]; read-out: ac50 CCTE_Shafer_MEA_dev_mutual_information_norm): 112 nM
- AC50 (2D rat cortical cultures [3]; read-out: ac50 CCTE_Shafer_MEA_dev_network_spike_duration_std): 262 nM
- AC50 (2D rat cortical cultures [3]; read-out: ac50 CCTE_Shafer_MEA_dev_network_spike_number): 33 nM
- AC50 (2D rat cortical cultures [3]; read-out: ac50 CCTE_Shafer_MEA_dev_network_spike_peak): 1810 nM
- AC50 (2D rat cortical cultures [3]; read-out: ac50 CCTE_Shafer_MEA_dev_per_burst_interspike_interval): 67 nM
- AC50 (2D rat cortical cultures [3]; read-out: ac50 CCTE_Shafer_MEA_dev_per_burst_spike_percent): 244 nM
- AC50 (2D rat cortical cultures [3]; read-out: ac50 CCTE_Shafer_MEA_dev_per_network_spike_spike_number_mean): 766 nM
- AC50 (2D rat cortical cultures [3]; read-out: ac50 CCTE_Shafer_MEA_dev_per_network_spike_spike_percent): 2300 nM
- AC50 (2D rat cortical cultures [3]; read-out: ac50 CCTE_Shafer_MEA_dev_spike_duration_mean): 511 nM
- AC50 (2D rat cortical cultures [4]; read-out: ac50 CCTE_Shafer_MEA_dev_LDH, rNFA mc5): 2940 nM

SMILES: CCCC(CCC)C(=O)O [Sodium valproate]
- Bioactivity across the 10 MEA endpoints of the BrainSphere MEA assay (in words) [1]: inactive across all metrics; also recorded: inactive in the BrainSphere MEA
- EC (benchmark response 1.349 SD) ([1]; Homo sapiens, tcplfit2 BMD at benchmark response (1.349*SD of baseline controls), read-out: BMD Mean.Spheroid.Burst.ISI): 85 µM
- EC (benchmark response 1.349 SD) ([1]; Homo sapiens, tcplfit2 BMD at benchmark response (1.349*SD of baseline controls), read-out: BMD Mean.Spheroid.Nonburst.ISI): 213 µM
- AC50 ([1]; Homo sapiens, concentration at 50% maximal activity, Supplement 3 prints it also for curves with hit call 0, read-out: ac50 Mean.Spheroid.Burst.Duration): 45000 nM
- AC50 ([1]; Homo sapiens, concentration at 50% maximal activity, Supplement 3 prints it also for curves with hit call 0, read-out: ac50 Mean.Spheroid.Burst.ISI): 85000 nM
- AC50 ([1]; Homo sapiens, concentration at 50% maximal activity, Supplement 3 prints it also for curves with hit call 0, read-out: ac50 Spheroid.Burst.Frequency): 84000 nM
- hitc CCTE_Shafer_MEA_dev_AB (2D rat cortical cultures [2]; rNFA mc5 hit call): 0
- Number of active endpoints in the rNFA (2D rat cortical cultures [3]; of 17 MEA endpoints, ref Brown et al. [2016], Carstens et al. [2022], Frank et al. [2017b], Shafer et al. [2019], ToxCast invitrodb (v4.2)): two
- AC50 (2D rat cortical cultures [3]; rNFA mc5, aenm per_network_spike_spike_number_mean, read-out: ac50 CCTE_Shafer_MEA_dev_per_network_spike_spike_number_mean): 576000 nM
- AC50 (2D rat cortical cultures [3]; rNFA mc5, aenm per_network_spike_spike_percent, read-out: ac50 CCTE_Shafer_MEA_dev_per_network_spike_spike_percent): 488000 nM
- hitc CCTE_Shafer_MEA_dev_active_electrodes_number (2D rat cortical cultures [3]; rNFA mc5 hit call, aenm active_electrodes_number): 0
- hitc CCTE_Shafer_MEA_dev_burst_duration_mean (2D rat cortical cultures [3]; rNFA mc5 hit call, aenm burst_duration_mean): 0
- hitc CCTE_Shafer_MEA_dev_burst_rate (2D rat cortical cultures [3]; rNFA mc5 hit call, aenm burst_rate): 0
- hitc CCTE_Shafer_MEA_dev_bursting_electrodes_number (2D rat cortical cultures [3]; rNFA mc5 hit call, aenm bursting_electrodes_number): 0
- hitc CCTE_Shafer_MEA_dev_correlation_coefficient_mean (2D rat cortical cultures [3]; rNFA mc5 hit call, aenm correlation_coefficient_mean): 0
- hitc CCTE_Shafer_MEA_dev_firing_rate_mean (2D rat cortical cultures [3]; rNFA mc5 hit call, aenm firing_rate_mean): 0
- hitc CCTE_Shafer_MEA_dev_inter_network_spike_interval_mean (2D rat cortical cultures [3]; rNFA mc5 hit call, aenm inter_network_spike_interval_mean): 0
- hitc CCTE_Shafer_MEA_dev_interburst_interval_mean (2D rat cortical cultures [3]; rNFA mc5 hit call, aenm interburst_interval_mean): 0
- hitc CCTE_Shafer_MEA_dev_mutual_information_norm (2D rat cortical cultures [3]; rNFA mc5 hit call, aenm mutual_information_norm): 0
- hitc CCTE_Shafer_MEA_dev_network_spike_duration_std (2D rat cortical cultures [3]; rNFA mc5 hit call, aenm network_spike_duration_std): 0
- hitc CCTE_Shafer_MEA_dev_network_spike_number (2D rat cortical cultures [3]; rNFA mc5 hit call, aenm network_spike_number): 0
- hitc CCTE_Shafer_MEA_dev_network_spike_peak (2D rat cortical cultures [3]; rNFA mc5 hit call, aenm network_spike_peak): 0
- hitc CCTE_Shafer_MEA_dev_per_burst_interspike_interval (2D rat cortical cultures [3]; rNFA mc5 hit call, aenm per_burst_interspike_interval): 0
- hitc CCTE_Shafer_MEA_dev_per_burst_spike_percent (2D rat cortical cultures [3]; rNFA mc5 hit call, aenm per_burst_spike_percent): 0
- hitc CCTE_Shafer_MEA_dev_per_network_spike_spike_number_mean (2D rat cortical cultures [3]; rNFA mc5 hit call, aenm per_network_spike_spike_number_mean): 1
- hitc CCTE_Shafer_MEA_dev_per_network_spike_spike_percent (2D rat cortical cultures [3]; rNFA mc5 hit call, aenm per_network_spike_spike_percent): 1
- hitc CCTE_Shafer_MEA_dev_spike_duration_mean (2D rat cortical cultures [3]; rNFA mc5 hit call, aenm spike_duration_mean): 0
- Concentrations at which active in the rNFA (2D rat cortical cultures [3]; ref Brown et al. [2016], Carstens et al. [2022], Frank et al. [2017b], Shafer et al. [2019], ToxCast invitrodb (v4.2)): exceeding 450 µM
- hitc CCTE_Shafer_MEA_dev_LDH (2D rat cortical cultures [4]; rNFA mc5 hit call): 0
